≈ marks a conversion by molar mass, not a printed value.
System: P388
Experiment: Cytotoxicity against mouse P388 cells
Type: functional, cell-based

Structure (SMILES)	IC50
CC/C=C/C(CC)C/C(=C/C(O)(CC)CC(O)(/C=C/C(=O)O)CC)CC (centres undefined)	10 µg/mL (≈ 27.3 µM)
CC/C=C/C(CC)CCCC1(CC)C[C@H](CC)[C@H](CC(=O)O)OO1 (relative stereo)	0.5 µg/mL (≈ 1.47 µM)
CC/C=C/C(CC)C/C(C)=C/C(O)(CC)CC(O)(/C=C/C(=O)O)CC (centres undefined)	10 µg/mL (≈ 28.4 µM)
CC/C=C/C(CC)CCCC1(CC)C[C@H](CC)[C@H](CC(=O)OC)OO1 (relative stereo)	5 µg/mL (≈ 14.1 µM)
